How the values were obtained:
[1] = system: Tetranychus urticae with organophosphate resistance; test: Test Case 2 Efficacy Against Tetranychus urticae; details: 125 ppm wettable powder (Formulation Example 1) applied to bean leaf with female adults; 25° C., humidity 65%; after three days
Aphis gossypii = test: Test case 1 Efficacy against Aphis gossypii; assay type: in vivo; details: 125 ppm emulsion (Formulation Example 2) applied to cucumbers parasitized with offspring; 25° C., humidity 65%; after five days
Description: Test case 1 Efficacy against Aphis gossypii
The test was repeated twice.

Row | SMILES | insect mortality rate [1] | insect mortality rate (Aphis gossypii)
1 | Cc1cc(Cl)ccc1N=CN(C)C [chlordimeform] | 9% | 
2 | Cc1nc(N(C)C)nc(OC(=O)N(C)C)c1C [pirimicarb] |  | 9%

Reference: US8598367B2, “Nitrogen-containing heterocyclic compound and pest control agent” (Nippon Soda Co., Ltd., priority 2008, dated 2013)
